In PubChem BioAssay (NCI):
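Cells were grown in 96-well plates and exposed to each compound for 48 hours at five concentrations; endpoints were interpolated linearly between bracketing concentrations, or set to the highest concentration if not reached. Abbreviation: GI50, concentration required for 50% inhibition of growth. TGI marks complete inhibition of growth.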

How the values were obtained:
Test in all cases: DTP human tumour cell line panel, 48 h; in the data active means GI50 below about 0.43 µM; inactive means the rest
SW-620 colon = test system: SW-620 colon
U251 CNS = test system: U251 CNS
OVCAR-4 ovarian = test system: OVCAR-4 ovarian
BT-549 breast = test system: BT-549 breast
NCI-H226 lung = test system: NCI-H226 lung
HL-60(TB) leukemia = test system: HL-60(TB) leukemia
A549 NSCLC = test system: A549 NSCLC
HCT-15 colon = test system: HCT-15 colon
HOP-62 NSCLC = test system: HOP-62 NSCLC
HOP-92 NSCLC = test system: HOP-92 NSCLC
MALME-3M melanoma = test system: MALME-3M melanoma
A498 renal = test system: A498 renal
NCI/ADR-RES ovarian = test system: NCI/ADR-RES ovarian
K-562 leukemia = test system: K-562 leukemia
T-47D breast = test system: T-47D breast
PC-3 prostate = test system: PC-3 prostate
DU-145 prostate = test system: DU-145 prostate
EKVX NSCLC = test system: EKVX NSCLC
KM12 colon = test system: KM12 colon
UO-31 renal = test system: UO-31 renal
RPMI-8226 leukemia = test system: RPMI-8226 leukemia
UACC-257 melanoma = test system: UACC-257 melanoma
MCF7 breast = test system: MCF7 breast
ACHN renal = test system: ACHN renal
SF-268 CNS = test system: SF-268 CNS
SN12C renal = test system: SN12C renal
RXF 393 renal = test system: RXF 393 renal
HT29 colon = test system: HT29 colon
OVCAR-8 ovarian = test system: OVCAR-8 ovarian
NCI-H23 lung = test system: NCI-H23 lung
OVCAR-5 ovarian = test system: OVCAR-5 ovarian
HCT-116 colon = test system: HCT-116 colon
NCI-H522 lung = test system: NCI-H522 lung
SNB-75 CNS = test system: SNB-75 CNS
SK-MEL-2 melanoma = test system: SK-MEL-2 melanoma
SF-295 CNS = test system: SF-295 CNS
SK-MEL-28 melanoma = test system: SK-MEL-28 melanoma
CAKI-1 renal = test system: CAKI-1 renal
UACC-62 melanoma = test system: UACC-62 melanoma
SK-OV-3 ovarian = test system: SK-OV-3 ovarian
SF-539 CNS = test system: SF-539 CNS
NCI-H460 lung = test system: NCI-H460 lung
IGROV1 ovarian = test system: IGROV1 ovarian
MDA-MB-435 = test system: MDA-MB-435
CCRF-CEM leukemia = test system: CCRF-CEM leukemia
HCC-2998 colon = test system: HCC-2998 colon
M14 melanoma = test system: M14 melanoma
MOLT-4 leukemia = test system: MOLT-4 leukemia
SR leukemia = test system: SR leukemia
MDA-MB-231 breast = test system: MDA-MB-231 breast
TK-10 renal = test system: TK-10 renal
786-0 renal = test system: 786-0 renal
COLO 205 colon = test system: COLO 205 colon
OVCAR-3 ovarian = test system: OVCAR-3 ovarian
SK-MEL-5 melanoma = test system: SK-MEL-5 melanoma
SNB-19 CNS = test system: SNB-19 CNS
HS 578T breast = test system: HS 578T breast
LOX IMVI melanoma = test system: LOX IMVI melanoma

COc1cc(C2C3=C(COC3=O)Nc3cc4c(cc32)OCO4)cc2c1OCO2 (configuration not stated)
172 nM: TGI (COLO 205 colon)
1920 nM: TGI (KM12 colon)
> 93300 nM: TGI (HOP-92 NSCLC)
active: GI50 (SW-620 colon) 65.1 nM | GI50 (U251 CNS) 111 nM | GI50 (OVCAR-4 ovarian) 98.2 nM | GI50 (NCI-H226 lung) 82.7 nM | GI50 (HL-60(TB) leukemia) 59 nM | GI50 (A549 NSCLC) 117 nM | GI50 (HCT-15 colon) 109 nM | GI50 (HOP-62 NSCLC) 76.2 nM | GI50 (A498 renal) 27.6 nM | GI50 (NCI/ADR-RES ovarian) 78.5 nM | GI50 (K-562 leukemia) 34 nM | GI50 (PC-3 prostate) 62.9 nM | GI50 (DU-145 prostate) 83.2 nM | GI50 (KM12 colon) 35.5 nM | GI50 (UO-31 renal) 332 nM | GI50 (RPMI-8226 leukemia) 68 nM | GI50 (MCF7 breast) 39.3 nM | GI50 (ACHN renal) 357 nM | GI50 (SF-268 CNS) 83.4 nM | GI50 (SN12C renal) 154 nM | GI50 (RXF 393 renal) 30.4 nM | GI50 (HT29 colon) 72.2 nM | GI50 (OVCAR-8 ovarian) 102 nM | GI50 (NCI-H23 lung) 75.7 nM | GI50 (HCT-116 colon) 90.5 nM | GI50 (NCI-H522 lung) 21.9 nM | GI50 (SNB-75 CNS) 33.7 nM | GI50 (SK-MEL-2 melanoma) 113 nM | GI50 (SF-295 CNS) 29.9 nM | GI50 (CAKI-1 renal) 156 nM | GI50 (UACC-62 melanoma) 51.9 nM | GI50 (SK-OV-3 ovarian) 70.6 nM | GI50 (SF-539 CNS) 39.4 nM | GI50 (NCI-H460 lung) 73.4 nM | GI50 (IGROV1 ovarian) 127 nM | GI50 (MDA-MB-435) 23.8 nM | GI50 (CCRF-CEM leukemia) 69.8 nM | GI50 (HCC-2998 colon) 109 nM | GI50 (M14 melanoma) 30 nM | GI50 (MOLT-4 leukemia) 123 nM | GI50 (SR leukemia) 47.9 nM | GI50 (MDA-MB-231 breast) 128 nM | GI50 (TK-10 renal) 295 nM | GI50 (786-0 renal) 138 nM | GI50 (COLO 205 colon) 73.5 nM | GI50 (OVCAR-3 ovarian) 26.7 nM | GI50 (SK-MEL-5 melanoma) 101 nM | GI50 (SNB-19 CNS) 143 nM | GI50 (HS 578T breast) 41.4 nM | GI50 (LOX IMVI melanoma) 80.1 nM
459 nM: TGI (DU-145 prostate)
> 100000 nM: TGI (SW-620 colon) | TGI (U251 CNS) | TGI (OVCAR-4 ovarian) | TGI (BT-549 breast) | TGI (A549 NSCLC) | TGI (HCT-15 colon) | TGI (MALME-3M melanoma) | TGI (K-562 leukemia) | TGI (T-47D breast) | TGI (PC-3 prostate) | TGI (EKVX NSCLC) | TGI (UO-31 renal) | TGI (RPMI-8226 leukemia) | TGI (UACC-257 melanoma) | TGI (MCF7 breast) | TGI (ACHN renal) | TGI (SF-268 CNS) | TGI (SN12C renal) | TGI (RXF 393 renal) | TGI (OVCAR-8 ovarian) | TGI (OVCAR-5 ovarian) | TGI (SK-MEL-28 melanoma) | TGI (CAKI-1 renal) | TGI (UACC-62 melanoma) | TGI (IGROV1 ovarian) | TGI (CCRF-CEM leukemia) | TGI (MOLT-4 leukemia) | TGI (SR leukemia) | TGI (MDA-MB-231 breast) | TGI (TK-10 renal) | TGI (786-0 renal) | TGI (SNB-19 CNS) | TGI (HS 578T breast) | TGI (LOX IMVI melanoma)
374 nM: TGI (SK-MEL-5 melanoma)
> 35000 nM: TGI (NCI-H460 lung)
2750 nM: TGI (SNB-75 CNS)
87.8 nM: TGI (M14 melanoma)
3210 nM: TGI (HT29 colon)
69.5 nM: TGI (OVCAR-3 ovarian)
inactive: GI50 (BT-549 breast) 1660 nM | GI50 (HOP-92 NSCLC) 3240 nM | GI50 (MALME-3M melanoma) > 100000 nM | GI50 (T-47D breast) > 100000 nM | GI50 (OVCAR-5 ovarian) 1090 nM
> 26000 nM: TGI (SK-MEL-2 melanoma)
66.5 nM: TGI (NCI-H522 lung)
3490 nM: TGI (HCT-116 colon)
> 87200 nM: TGI (HOP-62 NSCLC)
120 nM: TGI (A498 renal)
> 64500 nM: TGI (SF-539 CNS)
606 nM: TGI (NCI/ADR-RES ovarian)
66.4 nM: TGI (MDA-MB-435)
